Structures can show the parent of a compound that is named as a salt. Where two headings read alike, the source gives them in different places.
Biological target: Human DGAT2 (hDGAT2) (Homo sapiens (Human), UniProt Q96PD7)
Assay: In vitro DGAT2 assay, IC50 determination with hDGAT2 membrane fraction
Format: biochemical
Details: read-out: DGAT2 IC50
Summary of the method: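 CHAPS-solubilized membrane fraction of FLAG-tagged hDGAT2 from baculovirus-infected SF9 cells (0.01 mg/mL) in 100 mM Hepes-NaOH pH 7.4, 20 mM MgCl2, 200 nM methyl arachidonyl fluorophosphonate; compounds pre-incubated 20 min with 0.04% BSA. Reaction 40 min at room temperature, stopped with H3PO4. [^14C]tridecanoylglycerol in organic phase counted; 11-point geometric mean IC50.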

[1] = geometric mean, background for complete inhibition of DGAT2 obtained with 50 μM (1R,2R)-2-({3′-Fluoro-4′-[(6-fluoro-1,3-benzothiazol-2-yl)amino]-1,1′-biphenyl-4-yl}carbonyl)cyclopentanecarboxylic acid

Chain of Human DGAT2 (hDGAT2) (Q96PD7 whole entry): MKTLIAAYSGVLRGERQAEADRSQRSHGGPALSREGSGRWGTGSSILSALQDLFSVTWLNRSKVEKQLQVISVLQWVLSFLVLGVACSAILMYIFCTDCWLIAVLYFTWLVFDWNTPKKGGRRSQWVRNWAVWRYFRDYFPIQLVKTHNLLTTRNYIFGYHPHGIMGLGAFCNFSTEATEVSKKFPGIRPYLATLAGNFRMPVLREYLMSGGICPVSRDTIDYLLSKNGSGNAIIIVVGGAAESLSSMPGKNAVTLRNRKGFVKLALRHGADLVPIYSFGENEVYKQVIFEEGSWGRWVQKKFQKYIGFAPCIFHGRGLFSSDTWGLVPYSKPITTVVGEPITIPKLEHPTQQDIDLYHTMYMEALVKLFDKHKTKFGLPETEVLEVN

Structure (SMILES)	IC50 [1]	also measured
O=C([C@@H]1CCCN(c2ccc3nc(C4(c5ccncc5)CC4)[nH]c3n2)C1)N1CCCC1 [Example 161, (R)-(1-(2-(1-(Pyridin-4-yl)cyclopropyl)-3H-imidazo[4,5-b]pyridin-5-yl)piperidin-3-yl)(pyrrolidin-1-yl)methanone]	218 nM	
Cc1cc(N2CCC[C@@H](C(=O)N3CCCC3)C2)nc2[nH]c(-c3ccnc(C4CC4)n3)nc12 [Example 162, (R)-(1-(2-(2-Cyclopropylpyrimidin-4-yl)-7-methyl-3H-imidazo[4,5-b]pyridin-5-yl)piperidin-3-yl)(pyrrolidin-1-yl)methanone]	434 nM	
O=C([C@@H]1CCCN(c2ccc3nc(-c4cccc(-c5nnn[nH]5)c4)[nH]c3n2)C1)N1CCCC1 [Example 163, (R)-(1-(2-(3-(2H-Tetrazol-5-yl)phenyl)-3H-imidazo[4,5-b]pyridin-5-yl)piperidin-3-yl)(pyrrolidin-1-yl)methanone]	3400 nM	
CN(C)C(=O)[C@H]1CN(c2ccc3nc(-c4ccnc(C5CC5)n4)[nH]c3n2)CC(F)(F)C1 [Example 164, (R)-1-(2-(2-Cyclopropylpyrimidin-4-yl)-3H-imidazo[4,5-b]pyridin-5-yl)-5,5-difluoro-N,N-dimethylpiperidine-3-carboxamide]	2800 nM	
CN(C)C(=O)[C@@H]1CN(c2ccc3nc(-c4ccnc(C5CC5)n4)[nH]c3n2)CC(F)(F)C1 [Example 165, (S)-1-(2-(2-cyclopropylpyrimidin-4-yl)-3H-imidazo[4,5-b]pyridin-5-yl)-5,5-difluoro-N,N-dimethylpiperidine-3-carboxamide]	16500 nM	
O=C([C@@H]1CCCN(c2ccc3nc(C(F)(F)c4ccccc4)[nH]c3n2)C1)N1CCCC1 [Example 166, (R)-(1-(2-(Difluoro(phenyl)methyl)-3H-imidazo[4,5-b]pyridin-5-yl)piperidin-3-yl)(pyrrolidin-1-yl)methanone]	2280 nM	
c1cc(-c2nc3ccc(N4CCC[C@H](c5nnc6n5CCC6)C4)nc3[nH]2)nc(C2CC2)n1 [Example 168, (S)-2-(2-cyclopropylpyrimidin-4-yl)-5-(3-(6,7-dihydro-5H-pyrrolo[2,1-c][1,2,4]triazol-3-yl)piperidin-1-yl)-3H-imidazo[4,5-b]pyridine]	1390 nM	
c1cc(-c2nc3ccc(N4CCC[C@H](c5nnc6n5CCC6)C4)nc3[nH]2)nc(C2CC2)c1 [Example 171, (S)-2-(6-cyclopropylpyridin-2-yl)-5-(3-(6,7-dihydro-5H-pyrrolo[2,1-c][1,2,4]triazol-3-yl)piperidin-1-yl)-3H-imidazo[4,5-b]pyridine]	161 nM	
NC(=O)c1cccc(-c2nc3ccc(N4CCC[C@@H](C(=O)N5CCCC5)C4)nc3[nH]2)n1 [Example 172, (R)-6-(5-(3-(Pyrrolidine-1-carbonyl)piperidin-1-yl)-3H-imidazo[4,5-b]pyridin-2-yl)picolinamide]	83 nM	
CN(C)C(=O)c1cccc(-c2nc3ccc(N4CCC[C@@H](C(=O)N5CCCC5)C4)nc3[nH]2)n1 [Example 173, (R)—N,N-Dimethyl-6-(5-(3-(pyrrolidine-1-carbonyl)piperidin-1-yl)-3H-imidazo[4,5-b]pyridin-2-yl)picolinamide]	1250 nM	
O=C([C@@H]1CCCN(c2ccc3nc(-c4ccnc(C5CC5)n4)[nH]c3n2)C1)N1C[C@H]2C[C@@H]1CO2 [Example 174, (1R,4R)-2-Oxa-5-azabicyclo[2.2.1]heptan-5-yl((R)-1-(2-(2-cyclopropylpyrimidin-4-yl)-3H-imidazo[4,5-b]pyridin-5-yl)piperidin-3-yl)methanone]	1170 nM	
O=C([C@@H]1CCCN(c2ccc3nc(-c4ccnc(C5CC5)n4)[nH]c3n2)C1)N1CC(F)(F)C1 [Example 176, (R)-(1-(2-(2-Cyclopropylpyrimidin-4-yl)-3H-imidazo[4,5-b]pyridin-5-yl)piperidin-3-yl)(3,3-difluoroazetidin-1-yl)methanone]	73.4 nM	
C[C@H]1CO[C@@H](c2ccccn2)CN1c1ccc2nc(-c3cccc(Cl)c3)[nH]c2n1 [Example 177, (2R,5S)-4-(2-(3-Chlorophenyl)-3H-imidazo[4,5-b]pyridin-5-yl)-5-methyl-2-(pyridin-2-yl)morpholine]	953 nM	
CS(=O)(=O)c1cncc(-c2nc3ccc(N4CCC[C@@H](C(=O)N5CCCC5)C4)nc3[nH]2)c1 [Example 179, (R)-(1-(2-(5-(Methylsulfonyl)pyridin-3-yl)-3H-imidazo[4,5-b]pyridin-5-yl)piperidin-3-yl)(pyrrolidin-1-yl)methanone]	512 nM	
C[C@@H]1CCN(c2ccc3nc(-c4cccc(OC(F)F)c4)[nH]c3n2)C[C@@H]1C(=O)N(C)C [Example 180, (3R,4R)-1-(2-(3-(Difluoromethoxy)phenyl)-3H-imidazo[4,5-b]pyridin-5-yl)-N,N,4-trimethylpiperidine-3-carboxamide]	434 nM	
C[C@H]1CCN(c2ccc3nc(-c4cccc(OC(F)F)c4)[nH]c3n2)C[C@H]1C(=O)N(C)C [Example 181, (3S,4S)-1-(2-(3-(difluoromethoxy)phenyl)-3H-imidazo[4,5-b]pyridin-5-yl)-N,N,4-trimethylpiperidine-3-carboxamide]		IC50: 17400 nM
O=C([C@@H]1CCCN(c2ccc3nc(-c4cccc(C5CC5)n4)[nH]c3n2)C1)N1CCCC1 [Example 182, (R)-(1-(2-(6-Cyclopropylpyridin-2-yl)-3H-imidazo[4,5-b]pyridin-5-yl)piperidin-3-yl)(pyrrolidin-1-yl)methanone]	6.03 nM	
O=C([C@@H]1CCCN(c2ccc3nc(-c4cncc(C5CC5)c4)[nH]c3n2)C1)N1CCCC1 [Example 183, (R)-(1-(2-(5-Cyclopropylpyridin-3-yl)-3H-imidazo[4,5-b]pyridin-5-yl)piperidin-3-yl)(pyrrolidin-1-yl)methanone]	37.5 nM	
O=C([C@@H]1CCCN(c2ccc3nc(-c4cccc(C5CC5)n4)[nH]c3n2)C1)N1CCC(F)(F)C1 [Example 184, (R)-(1-(2-(6-Cyclopropylpyridin-2-yl)-3H-imidazo[4,5-b]pyridin-5-yl)piperidin-3-yl)(3,3-difluoropyrrolidin-1-yl)methanone]	15.2 nM	
CCN(C)C(=O)[C@@H]1CCCN(c2ccc3nc(-c4ccnc(C5CC5)n4)[nH]c3n2)C1 [Example 185, (R)-1-(2-(2-Cyclopropylpyrimidin-4-yl)-3H-imidazo[4,5-b]pyridin-5-yl)-N-ethyl-N-methylpiperidine-3-carboxamide]	231 nM	
O=C([C@H]1CN(c2ccc3nc(-c4cccc(C5CC5)n4)[nH]c3n2)CCO1)N1CCOCC1 [Example 186, (R)-(4-(2-(6-Cyclopropylpyridin-2-yl)-3H-imidazo[4,5-b]pyridin-5-yl)morpholin-2-yl)(morpholino)methanone]	162 nM	
O=C([C@@H]1CCCN(c2ncc3nc(-c4cccc(C(F)(F)F)n4)[nH]c3n2)C1)N1CCCC1 [Example 187, (R)-Pyrrolidin-1-yl(1-(8-(6-(trifluoromethyl)pyridin-2-yl)-9H-purin-2-yl)piperidin-3-yl)methanone]	10.5 nM	
CC(C)(c1nc2ccc(N3CCC[C@@H](C(=O)N4CCCC4)C3)nc2[nH]1)n1cc(Cl)cn1 [Example 188]	31.4 nM	
CSc1cnn(C2(c3nc4ccc(N5CCC[C@@H](C(=O)N6CCCC6)C5)nc4[nH]3)CC2)c1 [Example 189, (R)-(1-(2-(1-(4-(Methylthio)-1H-pyrazol-1-yl)cyclopropyl)-3H-imidazo[4,5-b]pyridin-5-yl)piperidin-3-yl)(pyrrolidin-1-yl)methanone]	34.1 nM	
COc1cnn(C2(c3nc4ccc(N5CCC[C@@H](C(=O)N6CCCC6)C5)nc4[nH]3)CC2)c1 [Example 194, (R)-(1-(2-(1-(4-Methoxy-1H-pyrazol-1-yl)cyclopropyl)-3H-imidazo[4,5-b]pyridin-5-yl)piperidin-3-yl)(pyrrolidin-1-yl)methanone]	101 nM	
O=C([C@@H]1CCCN(c2ccc3nc(C4(c5coc(C6CC6)n5)CC4)[nH]c3n2)C1)N1CCCC1 [Example 195, (R)-(1-(2-(1-(2-cyclopropyloxazol-4-yl)cyclopropyl)-3H-imidazo[4,5-b]pyridin-5-yl)piperidin-3-yl)(pyrrolidin-1-yl)methanone]	142 nM	
C[C@@H](c1nc2ccc(N3CCC[C@@H](C(=O)N4CCCC4)C3)nc2[nH]1)n1cc(Cl)cn1 [Example 196-B, ((R)-1-(2-((S)-1-(4-Chloro-1H-pyrazol-1-yl)ethyl)-3H-imidazo[4,5-b]pyridin-5-yl)piperidin-3-yl)(pyrrolidin-1-yl)methanone hydrochloride]		IC50 (geometric mean, background for complete inhibition of DGAT2 obtained with 50 μM (1R,2R)-2-({3′-Fluoro-4′-[(6-fluoro-1,3-benzothiazol-2-yl)amino]-1,1′-biphenyl-4-yl}carbonyl)cyclopentanecarboxylic acid, hydrochloride): 38.5 nM
O=C([C@@H]1CCCN(c2ccc3nc(C4(n5cc(Cl)cn5)CC4)[nH]c3n2)C1)N1CC(F)(F)C1 [Example 200, (R)-(1-(2-(1-(4-Chloro-1H-pyrazol-1-yl)cyclopropyl)-3H-imidazo[4,5-b]pyridin-5-yl)piperidin-3-yl)(3,3-difluoroazetidin-1-yl)methanone]	74.2 nM	
C[C@@H]1CCCN1C(=O)[C@@H]1CCCN(c2ccc3nc(C4(n5cc(Cl)cn5)CC4)[nH]c3n2)C1 [Example 201, ((R)-1-(2-(1-(4-Chloro-1H-pyrazol-1-yl)cyclopropyl)-3H-imidazo[4,5-b]pyridin-5-yl)piperidin-3-yl)((R)-2-methylpyrrolidin-1-yl)methanone]	91 nM	
C[C@H]1CCCN1C(=O)[C@@H]1CCCN(c2ccc3nc(C4(n5cc(Cl)cn5)CC4)[nH]c3n2)C1 [Example 202, ((R)-1-(2-(1-(4-Chloro-1H-pyrazol-1-yl)cyclopropyl)-3H-imidazo[4,5-b]pyridin-5-yl)piperidin-3-yl)((S)-2-methylpyrrolidin-1-yl)methanone]	321 nM	
